Experiment [1] concerns the target PI3Kα (His-PIK3CA/PIK3R1, p110 alpha/p85 alpha) (Homo sapiens (Human), UniProt P42336). As to the kind of experiment: PI3Kα biochemical assay (HTRF/FRET probe). Type of experiment: binding. The settings on record: class symbol. On the procedure:
Phosphoinositide 3-kinase α (PI3Kα) Biochemical Assay: A solution was prepared containing 0.2 nM Anti-HIS-Terbium (Cisbio, 64CUSTAZU), 3.7 nM designed-probe and 1.0 nM His-PIK3CA/PIK3R1 (p110 alpha/p85 alpha) in FRET Buffer (20 mM HEPES, 10 mM MgCl2, 0.015% Brij-35, 4 mM DTT, 0.05 mg/mL BSA).

A further experiment addresses DNA-PK (Homo sapiens (Human), UniProt P78527). As to the kind of experiment: DNA-PK biochemical assay (Reaction Biology HotSpot kinase assay, 10 μM ATP). On the procedure:
DNA-PK Biochemical Assay Using Reaction Biology's HotSpot Kinase Assay Protocol:
Reagent: Base Reaction buffer; 20 mM Hepes (pH 7.5), 10 mM MgCl2, 1 mM EGTA, 0.01% Brij35, 0.02 mg/ml BSA, 0.1 mM Na3VO4, 2 mM DTT, 1% DMSO Required cofactors are added individually to each kinase reaction.
Reaction Procedure: 1. Prepare substrate in freshly prepared Reaction Buffer; 2. Deliver any required cofactors to the substrate solution above; 3. Deliver kinase into the substrate solution and gently mix; 4. Deliver compounds in 100% DMSO into the kinase reaction mixture by Acoustic technology (Echo550; nanoliter range), incubate for 20 min at room temperature; 5. Deliver 33P-ATP into the reaction mixture to initiate the reaction; 6. Incubate for 2 hours at room temperature; 7. Detect kinase activity by P81 filter-binding method.

The target in experiment [2] is PI3Kδ (His-PIK3CD/PIK3R1, p110 delta/p85 alpha) (Homo sapiens (Human), UniProt O00329). As to the kind of experiment: PI3Kδ biochemical assay (HTRF/FRET probe). It is filed as binding. As to conditions: class symbol. Here is the method: Phosphoinositide 3-kinase (PI3K) Biochemical Assay: A solution was prepared containing 0.2 nM Anti-HIS-Terbium (Cisbio, 64CUSTAZU), 40 nM designed-probe and 1.0 nM His-PIK3CD/PIK3R1 (p110 delta/p85 alpha) in FRET Buffer (20 mM HEPES, 10 mM MgCl2, 0.015% Brij-35, 4 mM DTT, 0.05 mg/mL BSA).
PI3Kδ (His-PIK3CD/PIK3R1, p110 delta/p85 alpha), sequence (O00329 whole entry, species assumed): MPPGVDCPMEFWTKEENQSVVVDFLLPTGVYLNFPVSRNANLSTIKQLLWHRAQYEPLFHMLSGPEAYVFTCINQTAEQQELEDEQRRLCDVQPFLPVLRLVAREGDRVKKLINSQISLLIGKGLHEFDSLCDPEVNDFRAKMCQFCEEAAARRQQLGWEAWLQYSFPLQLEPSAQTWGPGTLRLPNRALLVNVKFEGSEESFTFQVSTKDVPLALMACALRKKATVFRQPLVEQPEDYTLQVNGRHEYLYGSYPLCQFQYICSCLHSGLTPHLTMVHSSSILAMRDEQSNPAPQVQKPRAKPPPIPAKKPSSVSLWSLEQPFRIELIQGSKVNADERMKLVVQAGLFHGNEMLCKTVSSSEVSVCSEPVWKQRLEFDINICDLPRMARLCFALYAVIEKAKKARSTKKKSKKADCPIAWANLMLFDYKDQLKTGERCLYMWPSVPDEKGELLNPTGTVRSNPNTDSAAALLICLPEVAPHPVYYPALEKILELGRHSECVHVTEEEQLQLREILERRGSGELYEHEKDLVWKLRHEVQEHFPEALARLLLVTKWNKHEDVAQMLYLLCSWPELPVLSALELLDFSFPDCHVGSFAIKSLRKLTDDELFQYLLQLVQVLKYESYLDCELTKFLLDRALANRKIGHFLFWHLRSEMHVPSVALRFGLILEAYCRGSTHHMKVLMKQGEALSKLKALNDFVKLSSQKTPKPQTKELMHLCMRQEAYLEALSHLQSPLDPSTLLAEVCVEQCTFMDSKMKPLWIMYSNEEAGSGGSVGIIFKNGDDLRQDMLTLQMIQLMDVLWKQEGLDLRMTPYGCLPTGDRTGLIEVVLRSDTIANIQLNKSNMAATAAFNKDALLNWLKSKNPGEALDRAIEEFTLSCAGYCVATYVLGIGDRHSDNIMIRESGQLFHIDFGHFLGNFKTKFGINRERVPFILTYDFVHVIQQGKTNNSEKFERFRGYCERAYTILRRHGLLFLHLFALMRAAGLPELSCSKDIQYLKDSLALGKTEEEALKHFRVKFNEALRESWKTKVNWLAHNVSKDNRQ
PI3Kδ (His-PIK3CD/PIK3R1, p110 delta/p85 alpha), sequence (P27986 whole entry partner, species assumed): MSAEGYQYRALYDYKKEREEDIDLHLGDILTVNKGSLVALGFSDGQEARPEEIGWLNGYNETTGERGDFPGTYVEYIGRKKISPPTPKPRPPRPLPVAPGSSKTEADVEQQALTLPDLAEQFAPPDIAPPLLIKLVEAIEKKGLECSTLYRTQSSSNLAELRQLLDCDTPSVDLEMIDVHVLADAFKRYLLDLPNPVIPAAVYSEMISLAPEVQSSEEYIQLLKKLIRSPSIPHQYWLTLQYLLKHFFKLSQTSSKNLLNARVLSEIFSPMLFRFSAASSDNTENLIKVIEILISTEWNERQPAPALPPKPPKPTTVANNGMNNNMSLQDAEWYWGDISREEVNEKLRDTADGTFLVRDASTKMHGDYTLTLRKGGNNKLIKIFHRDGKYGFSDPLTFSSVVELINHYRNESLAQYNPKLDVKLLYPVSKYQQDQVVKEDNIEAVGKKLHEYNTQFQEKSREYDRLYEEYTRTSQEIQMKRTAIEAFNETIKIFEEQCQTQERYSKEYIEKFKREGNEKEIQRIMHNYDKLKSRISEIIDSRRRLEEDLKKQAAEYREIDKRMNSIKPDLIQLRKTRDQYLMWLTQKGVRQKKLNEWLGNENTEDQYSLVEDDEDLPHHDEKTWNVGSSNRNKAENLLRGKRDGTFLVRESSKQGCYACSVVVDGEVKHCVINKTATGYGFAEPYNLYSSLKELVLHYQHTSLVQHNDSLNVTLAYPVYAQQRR

Another experiment concerns the target ATM (Homo sapiens (Human), UniProt Q13315). As to the kind of experiment: ATM biochemical assay (Reaction Biology HTRF kinase assay, 10 μM ATP). Here is the method:
Ataxia-Telangiectasia Mutated (ATM) Biochemical Assay Using Reaction Biology's HTRF Kinase Assay Protocol:
The assay detects kinase activity by antibody based HTRF assay. The GST-tagged p53 protein serves as substrate and Eu-labeled-antibody with specific phosphorylation site binds upon phosphorylation which is monitored by HTRF from the anti-GST-d2.
Reagent: Reaction buffer; 50 mM Hepes (pH 7.5), 150 mM NaCl, 10 mM MnCl2, 1% Glycerol, 0.01% Brij35, 1 mM DTT, 1% DMSO.
Substrate: Human p53 (aa2-393), RBC produced in E. coli, N-terminal GST-Tag, MW=70.42 kDa.
Detection; MAb Anti-p53-pS15-Eu cryptate, CisBio cat #61P08KAZ; MAb Anti GST-d2
Reaction Procedure: 1. Deliver 2× Enzyme in wells of reaction plate except No E control wells. Add buffer instead; 2. Deliver compounds in 100% DMSO into the kinase reaction mixture by Acoustic technology (Echo550; nanoliter range), incubate for 30 min at room temperature; 3. Deliver 2× substrate+ATP mixture into the reaction mixture to initiate the reaction; 4. Incubate for 2 hours at room temperature.
HTRF Detection: 1. Deliver 2× Stop/Detection mixture and incubate for 2 hours to overnight in the dark. 2. HTRF measurement (Ex/Em1/Em2=320/615/665 nm) in EnVision.

Setting [3] is: read-out: ATM HTRF 10 μM ATP IC50, class symbol.
Where [4] appears, read: read-out: DNA-PK HotSpot 10 μM ATP IC50, class symbol.

Here are results for 17 compounds from patent US20250263753A1, “BRIDGED CYCLE-BASED INHIBITORS OF DNA-DEPENDENT PROTEIN KINASE AND COMPOSITIONS AND APPLICATION IN GENE EDITING” (Juno Therapeutics, Inc., priority 2023, published 2025).

Where two headings read alike, the source gives them in different places. Where only a bound is given, the exact number is not on record here.

ATM, sequence (Q13315 whole entry): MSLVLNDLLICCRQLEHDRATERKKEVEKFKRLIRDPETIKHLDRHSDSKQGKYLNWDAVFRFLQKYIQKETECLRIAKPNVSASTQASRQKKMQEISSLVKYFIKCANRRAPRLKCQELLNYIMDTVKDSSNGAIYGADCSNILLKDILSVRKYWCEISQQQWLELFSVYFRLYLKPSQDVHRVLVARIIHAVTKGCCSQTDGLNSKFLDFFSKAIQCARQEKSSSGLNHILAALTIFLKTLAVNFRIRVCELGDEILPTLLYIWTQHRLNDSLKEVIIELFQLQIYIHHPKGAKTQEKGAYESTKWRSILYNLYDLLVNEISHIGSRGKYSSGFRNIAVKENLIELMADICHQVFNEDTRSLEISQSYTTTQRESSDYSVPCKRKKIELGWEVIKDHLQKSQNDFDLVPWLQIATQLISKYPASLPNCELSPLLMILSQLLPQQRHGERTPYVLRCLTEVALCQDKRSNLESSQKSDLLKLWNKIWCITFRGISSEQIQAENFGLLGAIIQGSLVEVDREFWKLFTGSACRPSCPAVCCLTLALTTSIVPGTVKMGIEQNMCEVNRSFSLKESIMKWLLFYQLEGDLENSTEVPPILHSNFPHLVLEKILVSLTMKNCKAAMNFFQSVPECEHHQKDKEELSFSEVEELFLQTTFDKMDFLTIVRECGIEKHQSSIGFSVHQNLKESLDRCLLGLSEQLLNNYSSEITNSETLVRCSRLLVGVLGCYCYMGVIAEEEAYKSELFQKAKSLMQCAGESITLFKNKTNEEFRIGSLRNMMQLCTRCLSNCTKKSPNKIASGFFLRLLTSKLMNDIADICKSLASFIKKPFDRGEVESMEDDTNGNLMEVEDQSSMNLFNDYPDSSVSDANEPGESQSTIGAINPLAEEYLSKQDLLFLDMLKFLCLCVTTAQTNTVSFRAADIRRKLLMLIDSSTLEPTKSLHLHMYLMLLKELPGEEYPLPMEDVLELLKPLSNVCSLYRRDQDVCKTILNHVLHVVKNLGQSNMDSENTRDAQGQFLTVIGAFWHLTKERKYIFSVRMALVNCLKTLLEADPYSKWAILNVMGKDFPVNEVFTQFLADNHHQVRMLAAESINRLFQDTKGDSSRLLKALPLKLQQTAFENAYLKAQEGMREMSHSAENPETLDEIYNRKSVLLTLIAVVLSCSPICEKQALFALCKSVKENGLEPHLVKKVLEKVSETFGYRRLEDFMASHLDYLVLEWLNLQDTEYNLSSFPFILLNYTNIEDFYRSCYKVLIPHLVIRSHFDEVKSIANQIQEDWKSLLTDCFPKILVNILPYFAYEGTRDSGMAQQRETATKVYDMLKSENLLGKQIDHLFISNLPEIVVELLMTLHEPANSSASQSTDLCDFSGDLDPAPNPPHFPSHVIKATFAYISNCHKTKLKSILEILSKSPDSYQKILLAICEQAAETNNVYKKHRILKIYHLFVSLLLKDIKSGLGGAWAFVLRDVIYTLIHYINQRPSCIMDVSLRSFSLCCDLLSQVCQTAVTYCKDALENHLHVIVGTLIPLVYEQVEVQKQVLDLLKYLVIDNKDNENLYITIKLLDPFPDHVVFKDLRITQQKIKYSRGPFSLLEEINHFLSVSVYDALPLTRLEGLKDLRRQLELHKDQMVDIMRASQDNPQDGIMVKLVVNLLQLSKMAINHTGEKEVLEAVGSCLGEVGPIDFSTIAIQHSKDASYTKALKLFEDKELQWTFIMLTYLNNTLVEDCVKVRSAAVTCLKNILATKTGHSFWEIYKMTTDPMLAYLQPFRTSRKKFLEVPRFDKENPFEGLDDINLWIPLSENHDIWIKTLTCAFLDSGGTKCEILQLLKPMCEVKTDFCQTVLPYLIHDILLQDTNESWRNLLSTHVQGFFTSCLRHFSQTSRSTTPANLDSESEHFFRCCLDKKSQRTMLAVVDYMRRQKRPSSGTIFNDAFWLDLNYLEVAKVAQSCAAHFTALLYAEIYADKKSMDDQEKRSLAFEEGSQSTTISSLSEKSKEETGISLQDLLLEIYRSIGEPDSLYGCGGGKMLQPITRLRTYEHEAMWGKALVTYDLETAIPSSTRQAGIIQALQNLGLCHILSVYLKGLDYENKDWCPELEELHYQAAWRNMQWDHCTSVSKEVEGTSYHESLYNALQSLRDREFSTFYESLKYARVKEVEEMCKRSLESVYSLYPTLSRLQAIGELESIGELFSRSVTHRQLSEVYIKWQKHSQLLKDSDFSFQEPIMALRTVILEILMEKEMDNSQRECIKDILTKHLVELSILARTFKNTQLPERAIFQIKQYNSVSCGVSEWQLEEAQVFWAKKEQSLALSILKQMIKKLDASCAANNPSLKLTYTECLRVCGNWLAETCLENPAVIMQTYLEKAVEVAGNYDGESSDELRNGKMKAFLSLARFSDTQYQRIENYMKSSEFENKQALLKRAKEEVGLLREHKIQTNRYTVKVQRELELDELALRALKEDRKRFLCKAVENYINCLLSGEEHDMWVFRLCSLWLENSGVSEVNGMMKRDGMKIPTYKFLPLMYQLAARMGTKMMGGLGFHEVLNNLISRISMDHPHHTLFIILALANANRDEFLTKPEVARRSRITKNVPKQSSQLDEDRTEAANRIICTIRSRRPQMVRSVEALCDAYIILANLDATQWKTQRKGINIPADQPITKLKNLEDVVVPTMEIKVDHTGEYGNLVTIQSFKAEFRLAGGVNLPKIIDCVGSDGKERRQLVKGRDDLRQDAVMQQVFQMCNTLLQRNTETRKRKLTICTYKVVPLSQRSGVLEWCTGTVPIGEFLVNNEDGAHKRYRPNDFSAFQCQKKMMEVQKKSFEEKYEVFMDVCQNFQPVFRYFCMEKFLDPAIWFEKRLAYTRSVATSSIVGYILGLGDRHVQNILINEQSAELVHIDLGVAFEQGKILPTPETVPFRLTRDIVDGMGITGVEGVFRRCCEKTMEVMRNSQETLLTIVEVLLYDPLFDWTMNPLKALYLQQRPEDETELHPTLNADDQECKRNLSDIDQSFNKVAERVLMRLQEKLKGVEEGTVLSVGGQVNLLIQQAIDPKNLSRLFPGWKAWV

`Cc1cc2c(cc1Nc1ncc3c(n1)n(C14CC(C(F)(F)F)(C1)C4)c(=O)n3C)OCO2` [Compound 19, 7-methyl-2-((6-methylbenzo[d][1,3]dioxol-5-yl)amino)-9-(3-(trifluoromethyl)bicyclo[1.1.1]pentan-1-yl)-7,9-dihydro-8H-purin-8-one]: the IC50 in experiment [1] is not below 1000 nM; on DNA-PK (class symbol), 1 to 10 nM; in experiment [2] it was not below 1000 nM; against ATM (class symbol), 100 to 1000 nM.
Consider `Cc1cc2c(cc1Nc1ncc3c(n1)n(C14CC(C#N)(C1)C4)c(=O)n3C)OCO2` [Compound 17, 3-(7-methyl-2-((6-methylbenzo[d][1,3]dioxol-5-yl)amino)-8-oxo-7,8-dihydro-9H-purin-9-yl) bicyclo[1.1.1]pentane-1-carbonitrile], for which the half-maximal inhibitory concentration (IC50) in experiment [1] is not below 1000 nM; against DNA-PK (class symbol), 1 to 10 nM; in experiment [2] it was not below 1000 nM; against ATM (class symbol), 100 to 1000 nM.
Regarding `Cc1cc2ncnn2cc1Nc1ncc2c(n1)N(C13CC(F)(C1)C3)CC(=O)N2C` [Compound 54, 8-{3-Fluorobicyclo[1.1.1]pentan-1-yl}-5-methyl-2-({7-methyl-[1,2,4]triazolo[1,5-a]pyridin-6-yl}amino)-5,6,7,8-tetrahydropteridin-6-one], the IC50 in experiment [1] is not below 1000 nM; at DNA-PK (class symbol), 1 to 10 nM; in experiment [2], not below 1000 nM; on ATM (setting [3]), not below 1000 nM.
With `Cc1cc2c(cc1Nc1ncc3c(n1)n(C14CC(F)(C1)C4)c(=O)n3C)OCCO2` [Compound 16, 9-(3-fluorobicyclo[1.1.1]pentan-1-yl)-7-methyl-2-((7-methyl-2,3-dihydrobenzo[b][1,4]dioxin-6-yl)amino)-7,9-dihydro-8H-purin-8-one], the IC50 in experiment [1] is not below 1000 nM; against DNA-PK (class symbol), 10 to 100 nM; in experiment [2], not below 1000 nM; on ATM (class symbol), 100 to 1000 nM.
Consider `Cc1cc2ncnn2cc1Nc1ncc2c(n1)n(C13CC(CC#N)(C1)C3)c(=O)n2C` [Compound 22, 2-(3-(7-methyl-2-((7-methyl-[1,2,4]triazolo[1,5-a]pyridin-6-yl)amino)-8-oxo-7,8-dihydro-9H-purin-9-yl)bicyclo[1.1.1]pentan-1-yl)acetonitrile], for which the IC50 in experiment [1] is 100 to 1000 nM; on DNA-PK (class symbol), 1 to 10 nM; in experiment [2], not below 1000 nM; at ATM (class symbol), 1 to 10 nM.
For `COC12CCC(N3CC(=O)N(C)c4cnc(Nc5cn6ncnc6cc5C)nc43)(CC1)C2` [Compound 62, 8-(4-methoxybicyclo[2.2.1]heptan-1-yl)-5-methyl-2-((7-methyl-[1,2,4]triazolo[1,5-a]pyridin-6-yl)amino)-7,8-dihydropteridin-6(5H)-one], the IC50 is not below 1000 nM in experiment [1], less than 1 nM on DNA-PK (setting [4]), not below 1000 nM in experiment [2] and 10 to 100 nM against ATM (class symbol).
With `Cc1cc2nccnc2cc1Nc1ncc2c(n1)N(C13CC(F)(C1)C3)C(=O)C21CC1` [Compound 72, 7′-(3-fluorobicyclo[1.1.1]pentan-1-yl)-2′-((7-methylquinoxalin-6-yl)amino)spiro[cyclopropane-1,5′-pyrrolo[2,3-d]pyrimidin]-6′(7′H)-one], the IC50 in experiment [1] was 100 to 1000 nM; on DNA-PK (setting [4]) it was less than 1 nM; in experiment [2], not below 1000 nM; on ATM (class symbol), 100 to 1000 nM.
Consider `Cc1cc2c(cc1Nc1ncc3c(C)nn(C45CC(C4)C5)c3n1)OCO2` [Compound 48, 1-(bicyclo[1.1.1]pentan-1-yl)-3-methyl-N-(6-methylbenzo[d][1,3]dioxol-5-yl)-1H-pyrazolo[3,4-d]pyrimidin-6-amine], for which the IC50 in experiment [1] was not below 1000 nM; on DNA-PK (class symbol) it was 1 to 10 nM; in experiment [2] it was not below 1000 nM; at ATM (class symbol), 100 to 1000 nM.
On to `Cc1cc2ncnn2cc1Nc1ncc2c(n1)n(C13CC(C(F)(F)F)(C1)C3)c(=O)n2C` [Compound 18, 7-methyl-2-((7-methyl-[1,2,4]triazolo[1,5-a]pyridin-6-yl)amino)-9-(3-(trifluoromethyl)bicyclo[1.1.1]pentan-1-yl)-7,9-dihydro-8H-purin-8-one], for which the IC50 is not below 1000 nM in experiment [1], 1 to 10 nM against DNA-PK (class symbol), not below 1000 nM in experiment [2] and 1 to 10 nM against ATM (class symbol).
Regarding `Cc1cc2c(cc1Nc1ncc3c(n1)n(C14CCC(O)(CC1)CC4)c(=O)n3C)OCO2` [Compound 27, 9-(4-hydroxybicyclo[2.2.2]octan-1-yl)-7-methyl-2-((6-methylbenzo[d][1,3]dioxol-5-yl)amino)-7,9-dihydro-8H-purin-8-one], the IC50 in experiment [1] was 10 to 100 nM; at DNA-PK (setting [4]), less than 1 nM; in experiment [2] it was not below 1000 nM; at ATM (class symbol) it was 10 to 100 nM.
As for `Cc1cc(-c2cnco2)c(F)cc1Nc1ncc2c(n1)n(C13CCC(O)(CC1)C3)c(=O)n2C` [Compound 36, 2-((5-fluoro-2-methyl-4-(oxazol-5-yl)phenyl)amino)-9-(4-hydroxybicyclo[2.2.1]heptan-1-yl)-7-methyl-7,9-dihydro-8H-purin-8-one], the IC50 was 100 to 1000 nM in experiment [1], less than 1 nM at DNA-PK (setting [4]), not below 1000 nM in experiment [2] and less than 1 nM on ATM (setting [3]).
Turning to `Cc1cc2c(cc1Nc1ncc3c(n1)N(C14CCC(O)(CC1)C4)C(=O)C31CC1)OCO2` [Compound 68, 7′-(4-hydroxybicyclo[2.2.1]heptan-1-yl)-2′-((6-methylbenzo[d][1,3]dioxol-5-yl)amino)spiro[cyclopropane-1,5′-pyrrolo[2,3-d]pyrimidin]-6′(7′H)-one], the IC50 was 100 to 1000 nM in experiment [1], less than 1 nM at DNA-PK (setting [4]), 100 to 1000 nM in experiment [2] and not below 1000 nM at ATM (setting [3]).
Consider `COC12CCC(n3c(=O)n(C)c4cnc(Nc5cc6nccnc6cc5C)nc43)(CC1)C2` [Compound 9, 9-(4-methoxybicyclo[2.2.1]heptan-1-yl)-7-methyl-2-((7-methylquinoxalin-6-yl)amino)-7,9-dihydro-8H-purin-8-one], for which the IC50 in experiment [1] was 10 to 100 nM; on DNA-PK (setting [4]), less than 1 nM; in experiment [2], 100 to 1000 nM; against ATM (class symbol) it was 10 to 100 nM.
For `[2H]C([2H])([2H])n1c(=O)n(C23CCC(O)(CC2)C3)c2nc(Nc3cn4ncnc4cc3C)ncc21` [Compound 77, 9-(4-hydroxybicyclo[2.2.1]heptan-1-yl)-7-(methyl-d3)-2-((7-methyl-[1,2,4]triazolo[1,5-a]pyridin-6-yl)amino)-7,9-dihydro-8H-purin-8-one], the IC50 is 100 to 1000 nM in experiment [1], less than 1 nM on DNA-PK (setting [4]), 100 to 1000 nM in experiment [2] and 10 to 100 nM against ATM (class symbol).
Consider `COC12CCC(n3c(=O)n(C)c4cnc(Nc5cc6nsnc6cc5C)nc43)(CC1)C2` [Compound 8, 9-(4-methoxybicyclo[2.2.1]heptan-1-yl)-7-methyl-2-((6-methylbenzo[c][1,2,5]thiadiazol-5-yl)amino)-7,9-dihydro-8H-purin-8-one], for which the IC50 in experiment [1] is 10 to 100 nM; at DNA-PK (setting [4]), less than 1 nM; in experiment [2] it was 100 to 1000 nM; on ATM (class symbol), 10 to 100 nM.
Take `Cc1cc2c(cc1Nc1ncc3c(n1)n(C14CCC(C#N)(CC1)CC4)c(=O)n3C)OCO2` [Compound 24, 4-(7-methyl-2-((6-methylbenzo[d][1,3]dioxol-5-yl)amino)-8-oxo-7,8-dihydro-9H-purin-9-yl) bicyclo[2.2.2]octane-1-carbonitrile]: the IC50 in experiment [1] was 100 to 1000 nM; at DNA-PK (setting [4]), less than 1 nM; in experiment [2], not below 1000 nM; on ATM (class symbol), 10 to 100 nM.
With `Cc1cc2ncnn2cc1Nc1ncc2c(n1)n(C13CCC(O)(CC1)C3)c(=S)n2C` [Compound 31, 9-(4-hydroxybicyclo[2.2.1]heptan-1-yl)-7-methyl-2-((7-methyl-[1,2,4]triazolo[1,5-a]pyridin-6-yl)amino)-7,9-dihydro-8H-purine-8-thione], the IC50 lay within 100 to 1000 nM in experiment [1], 1 to 10 nM on DNA-PK (class symbol), 10 to 100 nM in experiment [2] and 100 to 1000 nM on ATM (class symbol).
